According to the Deep4Chem optical property database:
“And” between values parts separate entries of the source, which are not always exact repeats. Equal values may be shown once. One block for each compound: values may come before it.

Test: solvent given as SMILES
[1] = in c1cc(-c2cccc(-n3c4ccccc4c4ccccc43)c2)cc(-n2c3ccccc3c3ccccc32)c1

Structure (SMILES): CC(C)c1cc(C(C)C)c(B2c3cc(N4c5ccccc5Oc5ccccc54)ccc3N(c3ccccc3)c3ccc(N4c5ccccc5Oc5ccccc54)cc32)c(C(C)C)c1
emission maximum (in C1CCOC1): 554.08 nm
emission maximum (in CCOC(C)=O): 546.26 nm
emission maximum (in Cc1ccccc1): 510.2 nm
emission maximum (in ClCCl): 546.26 nm
emission maximum [1]: 512 nm

Structure (SMILES): CC1(C)c2ccccc2N(c2ccc(-c3cc(-c4ccccc4)nc(-c4ccccc4)n3)cc2)c2ccccc21
emission maximum (in Cc1ccccc1): 475.6 nm

Structure (SMILES): O=C1OC(=O)c2cc(Oc3ccccc3)c3c4ccc5c6c(cc(Oc7ccccc7)c(c7ccc1c2c73)c64)C(=O)OC5=O
emission maximum (in C1CCOC1): 560 nm
emission maximum (in CN1CCCC1=O): 595 nm
emission maximum (in CN(C)C=O): 572 nm

Structure (SMILES): Cc1ccc(CN(Cc2ccc(C)cc2)c2nc(C#N)c(N(Cc3ccc(C)cc3)Cc3ccc(C)cc3)nc2C#N)cc1
emission maximum (in ClC(Cl)Cl): 592 nm

Structure (SMILES): COCCC1=Cc2nc1ccc1[nH]c(cc1CCOC)c1nc(c(OC(C)=O)cc3[nH]c2cc3CCOC)C(CCOC)=C1
emission maximum (in Cc1ccccc1): 652 nm

Structure (SMILES): CCOC(=O)/N=c1/oc2cc(OC)cc(OC)c2cc1C#N
emission maximum (in ClCCl): 442 nm

Structure (SMILES): c1cc2cccc3c4cccc5cccc(c(c1)c23)c54
emission maximum (in C1CCCCC1): 438.4 nm
emission maximum (in ClC(Cl)Cl): 443 nm
emission maximum (in ClCCl): 448 nm

Structure (SMILES): CC(C)(C)c1ccc(-c2c3ccccc3c3n2[B-](F)(F)[N+]2=Cc4c5ccccc5c(-c5ccc(C(C)(C)C)cc5)n4[B-](F)(F)[N+]2=C3)cc1
emission maximum (in CC#N): 601 nm
emission maximum (in CCCCCC): 603 nm
emission maximum (in CN(C)C=O): 607 nm
emission maximum (in Cc1ccccc1): 611 nm
emission maximum (in ClCCl): 608 nm

Structure (SMILES): c1ccc(-c2nnc(-c3cc(-n4c5ccccc5c5ccccc54)c(-n4c5ccccc5c5ccccc54)cc3-c3nnc(-c4ccccc4)o3)o2)cc1
emission maximum (in CC#N): 525.15 nm
emission maximum (in Cc1ccccc1): 466 nm
emission maximum (in ClCCl): 500.52 nm

Structure (SMILES): F[B-]1(F)Oc2c(ccc3c4c(ccc23)C=[N+](c2ccccc2)[B-](F)(F)O4)C=[N+]1c1ccccc1
emission maximum (in Cc1ccccc1): 538 nm
emission maximum (in ClCCl): 533 nm

Structure (SMILES): c1ccc(-c2nc(-c3ccccc3)nc(-n3c4ccccc4c4cc(-n5c6ccccc6c6ccccc65)ccc43)n2)cc1
emission maximum (in C1CCOC1): 535.43 nm
emission maximum (in Cc1ccccc1): 502.82 nm

Structure (SMILES): COc1ccc(C2=N/C(=C\c3ccc(C#N)cc3)C(=O)N2)cc1OC
emission maximum (in C1COCCO1): 482 nm

Structure (SMILES): Cc1cccc(-c2c3ccccc3c(-c3cccc(C)n3)c3ccccc23)n1
emission maximum (in ClCCl): 428 nm

Structure (SMILES): COc1ccc2c(c1)[n+]([O-])nc(N)[n+]2[O-]
emission maximum (in CC#N): 510 nm
emission maximum (in O): 542 nm

Structure (SMILES): CCCCn1c2ccc(-c3ccc4c(c3)c3c5c(ccc6ccccc65)ccc3n4CCCC)cc2c2c3c(ccc4ccccc43)ccc21
emission maximum (in ClCCl): 437 nm

Structure (SMILES): CC(=O)c1c2c(cc3ccc(N(C)C)cc13)CCC2
emission maximum (in C1CCCCC1): 466 nm
emission maximum (in C1CCOC1): 497 nm
emission maximum (in C1COCCO1): 495 nm
emission maximum (in CC#N): 529 nm
emission maximum (in CCO): 578 nm
emission maximum (in CS(C)=O): 536 nm
emission maximum (in Cc1ccccc1): 490 nm
emission maximum (in ClC(Cl)Cl): 516 nm
emission maximum (in ClCCl): 510 nm

Structure (SMILES): CCc1c(C)[nH]c(C2=[N+]3C(=Cc4c(C)cc(C)n4[B-]3(F)F)c3ccccc32)c1C
emission maximum (in C1CCOC1): 635 nm
emission maximum (in CC#N): 632 nm
emission maximum (in CCCCCC): 630 nm
emission maximum (in CO): 631 nm
emission maximum (in Cc1ccccc1): 642 nm
emission maximum (in ClCCl): 640 nm

Structure (SMILES): Cc1ccc(-c2c3nc(c(-c4ccc(C)cc4)c4ccc([nH]4)c(-c4ccc(OC(=O)C(C)c5cccc(C(=O)c6ccccc6)c5)cc4)c4nc(c(-c5ccc(C)cc5)c5ccc2[nH]5)C=C4)C=C3)cc1 (configuration not stated)
emission maximum (in ClCCl): 652 nm

Structure (SMILES): COc1ccc(N2c3sc4ccccc4c3Sc3sc4ccccc4c32)cc1
emission maximum (in ClCCl): 562 nm

Structure (SMILES): NC1=N/C(=N\c2ccccn2)c2cccc3cccc1c23
emission maximum (in ClCCl): 506 nm

Structure (SMILES): N#Cc1c(-n2c3ccccc3c3ccccc32)c(-n2c3ccccc3c3ccccc32)c(-n2c3ccccc3c3ccccc32)c(-n2c3ccccc3c3ccccc32)c1-n1c2ccccc2c2ccccc21
emission maximum (in CCCCCC): 451.82 nm
emission maximum (in CCO): 515.31 nm
emission maximum (in Cc1ccccc1): 464 nm and 470 nm
emission maximum (in ClCCl): 497.22 nm
emission maximum [1]: 486 nm

Structure (SMILES): Cc1ccccc1-c1c2cccc3c(-c4ccc(C(C)(C)C)cc4)cc4c(-c5ccccc5C)c5cccc6c(-c7ccc(C(C)(C)C)cc7)cc1c(c65)c4c32
emission maximum (in ClCCl): 455 nm

Structure (SMILES): CCCCCCn1c2c(c3ccccc31)-c1c(c3ccccc3n1CCCCCC)-c1c(c3ccccc3n1CCCCCC)-c1c-2c2ccccc2n1CCCCCC
emission maximum (in ClCCl): 352 nm

Structure (SMILES): CN(CC(O)c1cccc(O)c1)c1ccc([N+](=O)[O-])c(C2CC(c3cccc4ccccc34)=NN2c2ccccc2)c1 (configuration not stated)
emission maximum (in C1CCCCC1): 495 nm
emission maximum (in C1CCOC1): 467 nm
emission maximum (in C1COCCO1): 454 nm
emission maximum (in CC#N): 526 nm
emission maximum (in CC(C)O): 511 nm
emission maximum (in CCOC(C)=O): 498 nm
emission maximum (in CCOCC): 497 nm
emission maximum (in CO): 514 nm
emission maximum (in Cc1ccccc1): 497 nm
emission maximum (in ClC(Cl)Cl): 451 nm
emission maximum (in O): 518 nm

Structure (SMILES): CCCCCCCCc1ccc(-n2c3c(c4c2c2c(n4-c4ccc(CCCCCCCC)cc4)-c4ccccc4NB2c2ccccc2)B(c2ccccc2)Nc2ccccc2-3)cc1
emission maximum (in Cc1ccccc1): 400 nm

Structure (SMILES): c1ccc(-p2c(-c3cccs3)cc3ccccc32)cc1 (configuration not stated)
emission maximum (in C1CCOC1): 417 nm

Structure (SMILES): C[P+]1(c2ccccc2)C2=C(c3ccccc31)S(=O)(=O)c1ccccc12 (configuration not stated)
emission maximum (in CC#N): 479 nm
emission maximum (in CCO): 419 nm
emission maximum (in ClCCl): 483 nm

Structure (SMILES): Fc1cc(-c2ccc(-c3nc4ccccc4[nH]3)cc2)ccc1-c1ccc(-c2nc3ccccc3[nH]2)cc1
emission maximum (in CN(C)C=O): 414 nm

Structure (SMILES): COc1ccccc1C1=[N+]2C(=Cc3c4cc5ccccc5cc4c(-c4ccccc4OC)n3[B-]2(F)F)c2cc3ccccc3cc21
emission maximum (in C1CCOC1): 760 nm

Structure (SMILES): CCCn1c2cccc3oc4cccc5oc6cccc1c6[c+](c45)c32
emission maximum (in CC#N): 560 nm

Structure (SMILES): CCN(CC)c1ccc2cc(/C=C/C(=O)/C=C(O)/C=C/c3cc4ccc(N(CC)CC)cc4oc3=O)c(=O)oc2c1
emission maximum (in C1CCOC1): 568 nm
emission maximum (in C1COCCO1): 561 nm
emission maximum (in CC#N): 609 nm
emission maximum (in CC(C)=O): 598 nm
emission maximum (in CCOC(C)=O): 566 nm
emission maximum (in CN(C)C=O): 611 nm
emission maximum (in CS(C)=O): 621 nm
emission maximum (in Cc1ccccc1): 542 nm
emission maximum (in ClC(Cl)Cl): 581 nm
emission maximum (in ClCCl): 593 nm

Structure (SMILES): CCOC(=O)CN1C(=O)C2=C(c3ccccc3)N(CC(=O)OCC)C(=O)C2=C1c1ccccc1
emission maximum (in CC#N): 512 nm
emission maximum (in CS(C)=O): 519 nm
emission maximum (in Cc1ccccc1): 520 nm

Structure (SMILES): CC[N+]1(CC)CN2C(=N1)C(C(=O)O)=Cc1c(OC)ccc(OC)c12
emission maximum (in O): 515 nm

Structure (SMILES): c1ccc2c(c1)-c1ccccc1C21c2cc(-c3ccc4ccc5cccc6ccc3c4c56)ccc2-c2ccc(-c3ccc4ccc5cccc6ccc3c4c56)cc21
emission maximum (in ClC(Cl)Cl): 421 nm

Structure (SMILES): COC(=O)c1[nH]c(-c2ccc([N+](=O)[O-])cc2)c2nnc3ccc(OC)cc3c12
emission maximum (in ClCCl): 549 nm

Structure (SMILES): CCCCOc1cc(C=C2c3ccccc3-c3ccccc32)c(OCCCC)cc1C=C1c2ccccc2C=Cc2ccccc21
emission maximum (in C1CCOC1): 472 nm

Other lines, results leading:

emission maximum (in CS(C)=O): 625 nm
emission maximum (in ClCCl): 572 nm
Structure (SMILES): CCN(CC)c1ccc2c(c1)oc(=O)c1c(=O)oc3cc(C#Cc4ccc(C#N)cc4)ccc3c12

emission maximum (in ClCCl): 489 nm
Structure (SMILES): CCCCOc1c(Br)cc2cc(Br)c(OCCCC)c3c4c(OCCCC)c(Br)cc5cc(Br)c(OCCCC)c(c1c23)c54

emission maximum (in ClCCl): 620 nm
Structure (SMILES): CC[B-]1(CC)c2cccc3c4c5c(cccc5c(c23)-c2cccc(C)[n+]21)[B-](CC)(CC)[n+]1c(C)cccc1-4

emission maximum (in CCOC(C)=O): 478 nm
Structure (SMILES): Cn1ncc2c3c(C#N)c4c5ccccc5n(C)c4nc3ccc21

emission maximum (in CS(C)=O): 523 nm
Structure (SMILES): Cc1ccc(-c2cc(/C=C/c3ccc(N(c4ccccc4)c4ccccc4)cc3)c(C#N)c(N3CCCCC3)c2)cc1

emission maximum (in C1CCCCC1): 477.08 nm
Structure (SMILES): C[Si](C)(C)C#CC#Cc1ccc2c3cccc4cccc(c5cccc1c52)c43

emission maximum (in C1CCCCC1): 294.99 nm
Structure (SMILES): Oc1ccccc1

emission maximum (in ClCCl): 455 nm
Structure (SMILES): O=c1oc2ccccc2c2c1c(=O)oc1cc(O)ccc12

emission maximum (in CC#N): 569 nm
Structure (SMILES): CC1=CC(C)=[N+]2C1=C(c1ccccc1)c1c(C)cc(/C=C/c3ccccc3)n1[B-]2(F)F

emission maximum (in ClCCl): 434 nm
Structure (SMILES): CC(C)(C)c1cc(-c2ccc(-c3cccs3)s2)c2c(c1)c1cc(C(C)(C)C)cc(-c3ccc(-c4cccs4)s3)c1n2-c1ccc(-c2cccs2)s1

emission maximum (in ClCCl): 387 nm
Structure (SMILES): C(=C\c1ccc(-c2ccncc2)cc1)/c1ccc(-c2ccncc2)cc1

emission maximum (in C1CCOC1): 568 nm
emission maximum (in CC#N): 592 nm
emission maximum (in CCCCCC): 496 nm
Structure (SMILES): CC1=N/C(=C\c2ccc(C#N)c(N(C)C)c2)C(=O)N1C

emission maximum (in CC#N): 426 nm
Structure (SMILES): C(=C\c1cc[n+](Cc2ccccc2)cc1)/c1cc[n+](Cc2ccccc2)cc1

emission maximum (in ClC(Cl)Cl): 574 nm
Structure (SMILES): N#Cc1nc(N(Cc2ccc(I)cc2)Cc2ccc(I)cc2)c(C#N)nc1N(Cc1ccc(I)cc1)Cc1ccc(I)cc1

emission maximum (in C1COCCO1): 494 nm
emission maximum (in CC#N): 547 nm
emission maximum (in CO): 554 nm
Structure (SMILES): CC(=O)c1ccc(/C=C/C=C/C2=NC3C(=O)NC(N)=NC3N2[C@H]2C[C@H](O)[C@@H](CO)O2)cc1 (some centres not stated)

emission maximum (in C1COCCO1): 472 nm
emission maximum (in CC#N): 475 nm
emission maximum (in CCCCOCCCC): 475 nm
emission maximum (in CCOC(C)=O): 469 nm
Structure (SMILES): Clc1nc(Cl)nc(Nc2ccc3c4cccc5cccc(c6cccc2c63)c54)n1

emission maximum (in CO): 448 nm
Structure (SMILES): C1=CC2=Nc3cccc[n+]3CN2C=C1

emission maximum (in O): 519 nm
Structure (SMILES): Nc1ccc2c(-c3ccc(C(=O)CN4C(=O)CCC4=O)cc3C(=O)[O-])c3ccc(=[NH2+])c(S(=O)(=O)[O-])c-3oc2c1S(=O)(=O)[O-]

emission maximum (in CC#N): 423 nm
emission maximum (in CCCCCC): 380 nm
Structure (SMILES): Nc1ccc(/C=C/c2ccccc2)cc1

emission maximum (in C1CCOC1): 498 nm
Structure (SMILES): Cc1ccc(-c2ccc(-c3ccc(-c4ccc(C)cc4)cc3/C(=C(/c3ccccc3)c3cc(-c4ccc(C)cc4)ccc3-c3ccc(-c4ccc(C)cc4)cc3)c3ccccc3)cc2)cc1

emission maximum (in C1CCCCC1): 543 nm
emission maximum (in C1CCOC1): 541 nm
emission maximum (in CC#N): 555 nm
emission maximum (in CCO): 553 nm
emission maximum (in O): 539 nm
Structure (SMILES): F[B-]1(F)N(c2ccccc2)C=Cc2cccc[n+]21
